In brackets after ≈: the same amount, converted by molar mass. Where two headings read alike, the source gives them in different places.
What was measured:
[1] = tested on: Plasmodium falciparum RCS (Isolates from Brazil); experiment: In vitro antimalarial study, [3H]hypoxanthine uptake, RCS clone; type: cell-based; settings: P. falciparum RCS clone
Method: (§1) B. Antimalarial Activities: (a). In Vitro Antimalarial Studies. The in vitro assays were conducted by using a modification of the semiautomated microdilution technique of Desjardins et al and Chulay et al.. Four P. falciparum malaria parasite clones, from CDC Indochina III (W-2), CDC Sierra Leone I (D-6), Southeast Asia Isolates (TM91C235) and RCS (Isolates from Brazil) were utilized in susceptibility testing. They were derived by direct visualization and micromanipulation from patient isolates. The W-2 clone is susceptible to mefloquine but resistant to chloroquine, sulfadoxine, pyrimethamine, and quinine, whereas the D-6 clone is naturally resistant to mefloquine but susceptible to chloroquine, sulfadoxine, pyrimethamine and quinine. Test compounds were initially dissolved in DMSO and diluted 400 fold in RPMI 1640 culture medium supplemented with 25 mM Hepes, 32 mM NaHCO3 and 10% Albumax I (Gibco BRL, Grand Island, N.Y.). These solutions were subsequently serially diluted two-fold with a Biomek 1000 (Beckman, Fullerton, Calif.) over 11 different concentrations. The parasites were exposed to serial dilutions of each compound for 48 hrs and incubated at 37° C. with 5% O2, 5% CO2 and 90% N2 prior to the addition of [^3H]hypoxanthine. After a further incubation of 18 hrs, parasite DNA was harvested from each microtiter well using Packard Filtermate 196 Harvester (Meriden, Conn.) onto glass filters. Uptake of [^3H]hypoxanthine was measured with a Packard Topcount Scintillation. Concentration-response data were analyzed by a non-linear regression logistic dose response model and the IC50 values (50% inhibitory concentrations) for each compound were calculated. (Table 3). (b). In Vivo Antimalarial Studies against P. berghei in mice: The in vivo efficacy of the artelinic acid analogs were determined in a modified Thompson test. This test measures the survivability of mice and parasitemia clearance following administration of drug on days 3-5 post infection. In brief, 5×10^6 P. berghei-infected erythrocytes (KBG-173 strain) were inoculated intraperitoneally to female mice that weighed 24-30 g. By day three post-infection, parasitemia ranged from 1.0-3.7%. Each drug, dissolved in 5% sodium bicarbonate, was administered PO twice daily from day 3-5 post-infection. Total doses for each drug ranged from 1.5-384 mg/kg with 8 mice included in each dosage group. The percent suppression of parasitemia in the treated mice compared to the untreated controls was determined for each test compound; the SD-50 (fifty percent suppression dose) and SD-90 were determined from a non-linear regression logistic dose response fit at day 6 parasitemia data. Survival of mice to day 60 post-infection was considered a cure (C). Compounds were considered active (A) when the survival time of the treated mice was greater than twice the control mice, i.e., 12-14 day (Table 4-5). (c). Sporozoite Induced Test Each compound is ground with a mortar & pestle and suspended in 0.5% hydroxyethylcellulose—0.1% Tween 80 for compounds to be administered PO and those given SC are suspended in peanut oil. Each compound is prepared at 3 different dose levels as requested by WRAIR. Compounds are administered either PO or SC to mice once 4 hr before inoculation of sporozoites. Four-week-old male CD-1 mice, purchased from Charles River and weighing 16-17 g, are placed 5 per cage and allowed to acclimate for 4 days before being treated and then inoculated with sporozoites. They are fed food and water ad-lib and maintained at 76° F. with 12 hr light and 12 hr darkness. The cages and water bottles are changed biweekly. The mice are weighed on Days 0, 3 and 6 then biweekly when blood films are taken. Plasmodium yoelii (17×) is used to infect mice that will be used to infect the mosquitoes. Mice are given a single dose of test compound 4 hr before being inoculated intraperitoneally with 2.5×10^5 sporozoites of Plasmodium yoelii on Day 0. […]

[2] = tested on: Plasmodium berghei (KBG-173 strain); type: in vivo; settings: for # Mice Alive Day 30/Total / # Mice Dead/Day Died: oral
Method: as §1

Row | Compound | IC50 RCS [1] [ng/mL] | # Mice Alive Day 30/Total ([2]; 1.25 mg/kg/day) | # Mice Alive Day 30/Total ([2]; 80-2.5 mg/kg/day) | # Mice Dead/Day Died ([2]; 80-2.5 mg/kg/day) | IC50 ([1]; Plasmodium falciparum) [ng/mL] | drug-related deaths in mice ([2]; in vivo) | # Mice Alive Day 30/Total ([2]; 220-0.625 mg/kg/day) | # Mice Dead/Day Died ([2]; 220-0.625 mg/kg/day)
1 | CCOC(=O)Nc1nc(NC(=O)OCC)c2c(ccc3c2ccn3Cc2ccccc2C(F)(F)F)n1 [Compound 2b] | >250 | 3/5 | 5/5 | None |  |  |  | 
2 | CC(=O)N(C(C)=O)c1nc(N(C(C)=O)C(C)=O)c2c(ccc3c2ccn3Cc2ccccc2C(F)(F)F)n1 [Compound 3e, 1,3-Bis(diacetylamino)-7-(2-trifluoromethyl)benzyl-7H-pyrrolo[3,2-f]quinazoline] |  |  |  |  | 0.0236 (≈ 0.0449 nM) | no drug-related deaths | 5/5 | None
